According to patent publication US20240318102A1, “IMPROVED ENZYME-CONTAINING ADDITIVE AND DETERGENT LIQUOR FORMULATIONS” (priority 2021, published 2024):

Each substance was assayed against T1, lipase enzyme (Thermomyces lanuginosus, UniProt O59952, N255R/T253R) (assay: Washing test: total hydrolysis of rapeseed oil on a polyester swatch by lipase-containing washing liquor, free oleic acid quantified by HPLC). Conditions: Example 5, surfactant concentration series.
T1 construct: purchased Novozymes LIPEX 100 L
T1 sequence (O59952 23-291 T253R/N255R): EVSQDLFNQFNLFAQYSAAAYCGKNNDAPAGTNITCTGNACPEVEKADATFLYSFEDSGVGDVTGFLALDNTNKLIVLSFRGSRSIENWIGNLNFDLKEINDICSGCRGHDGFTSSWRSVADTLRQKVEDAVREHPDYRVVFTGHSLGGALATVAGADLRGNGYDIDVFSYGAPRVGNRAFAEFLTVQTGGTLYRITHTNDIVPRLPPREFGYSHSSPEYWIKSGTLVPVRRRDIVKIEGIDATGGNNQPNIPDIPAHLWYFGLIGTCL
Type: biochemical
5EO-isoC13 was tested, and the “surfactant concentration at which the suppressing activity already becomes noticeable” value was 10 ppm by weight and the “surfactant concentration until which the suppressing effect further grows (about the same up to 250 ppm by weight)” value was “about 100 ppm by weight”.

The substances below were run against T1, lipase enzyme in the same assay as above. Conditions: about 100 ppm by weight surfactant; lipase concentrate about 0.2 g/l; pH about 9.6; about 50° C.; water hardness 2 fH.
Type: biochemical
Procedure: The total hydrolysis of rapeseed oil in a wash process was tested with washing liquors that were always comprising the same concentration of a lipase enzyme concentrate. A blank test was performed without any added surfactant. This blank test served as the reference with which could be compared the other results obtained with the same washing liquor samples into which one of a number of different non-ionic surfactants were added.
In the experiments, the lipase concentrate was always present in a concentration of about 0.2 gram of the concentrate per litre of total liquor.
The washing tests were performed at a temperature of about 50° C. The water in the formulations was demineralised water obtained by reverse osmosis (RO).
Different washing liquors were prepared containing about 100 ppm by weight of a selected surfactant, to be compared with a blank liquor containing only the lipase enzyme concentrate and no surfactants.
For each liquor was tested the appearance of free oleic acid generated from the hydrolysis of a standard amount of rapeseed oil with which the liquor was brought in contact. Monitored by High Performance Liquid Chromatography (HPLC) was the quantitative release of free oleic acid (C18:1 fatty acid) in the washing liquor and/or present on the textile, as explained as part of the protocols below. Because oleic acid is the main fatty acid in the triglycerides of rapeseed oil, the generation of this acid as free fatty acid it is an excellent quantitative marker for the hydrolysis of rapeseed oil, in this context thus also for the activity of the lipase enzyme.
A series of tests were performed using water having a hardness of 2 fH. […] For each surfactant choice 2 duplicate samples were tested, except for Sample J (3 duplicates) and Sample K (only 1 sample tested). […] Also shown for each bar with a surfactant is an error bar showing the difference between the lowest and the highest of the duplicates.
The washing tests consisted of contacting at 50° C. a washing liquor containing the selected surfactant together with 0.2 grams per litre of the lipase enzyme concentrate and having a pH of 9.6 with a polyester swatch type W30-A (PES W30-A textile swatch obtained from the company Center For Testmaterials BV (NL)) that has been pre-treated with an amount of rapeseed oil such that the textile swatch contained about 1.5 grams of rapeseed oil on a total weight of slightly over 8 grams of pre-treated swatch.
The pre-treatment consisting of distributing a generous amount of rapeseed oil over the swatch by means of a paint roller. After applying the rapeseed oil onto the swatch, the impregnated swatch was left to dry for 48 hours between two layers of textile for assuring saturation and for absorbing the excess, after which the swatch was weighed on an analytical balance. The difference with the weight of the swatch before applying the rapeseed oil provides the amount of rapeseed oil that was present on the swatch.
In a 600 ml beaker is introduced 500 grams of the stock solution that was prepared in step 2, and this is brought up to a temperature of […] under stirring by means of a mixer submerged close to the bottom of the beaker at about 200 rpm. To this stock solution is then added 100 microliter (“μl”) of the concentrate of the lipase enzyme. Into this warm solution is then introduced the textile (i.e. the pre-treated PES swatch) to be tested, and the time counting of 10 minutes is started. Where a surfactant should be included, 50 milligram thereof is added into the beaker prior to introducing the lipase enzyme and of the textile.
After the 10 minutes contacting time provided in part 1, about 30 grams of the wash water (or wash liquor) is introduced into the 250 ml beaker containing the buffer solution and the formic acid. The formic acid serves to inactivate the lipase enzyme, so that the reaction is stopped. The total weight of the beaker content is noted and should be ±35 grams.
The dried textile is first weighed. […]
5EO-C13-C15 [M] was tested, and the “effect of the surfactant on lipase activity in the washing liquor (in words, FIG. 1)” value (from here on “effect of the surfactant”) was “relatively benign”. With 5EO-isoC13 the “effect of the surfactant” value was “not better than the conventional LES surfactant”. 7EO-C13-15 [N] was tested, and the “effect of the surfactant” value was “much larger depressing effect”. In the case of 7EO-isoC13 [F], the “effect of the surfactant” value is reported as “not better than the conventional LES surfactant”. For 9EO-isoC13 [G], the “effect of the surfactant” value was “not better than the conventional LES surfactant”. For 10EO-isoC13 [H], the “effect of the surfactant” value was “not better than the conventional LES surfactant”. With C8-C10 APG-DP of 1.7 [Sample K] the “effect of the surfactant” value was “much lower depressing effect”. “C8-C10 alkyl polyglucoside (APG) with an average degree of polymerisation (DP) of 1.5” was tested, and the “effect of the surfactant” value was “much lower depressing effect”. In the case of C8-C16 APG-DP of 1.5 [Sample J], the “effect of the surfactant” value is reported as “much lower depressing effect”. In the case of “C9-C11 fatty alcohol alkoxylated with an average ethoxylation degree of about 6 and an average propoxylation degree of about 4 [Sample O]”, the “effect of the surfactant” value is reported as “worse than the LES reference”. In the case of C12-C14 amine oxide [P], the “effect of the surfactant” value is reported as “significant boost”. For “a mixture of linear C13-C15 alcohol that has been ethoxylated to an average degree of about 3”, the “effect of the surfactant” value was “relatively benign”. “isotridecyl alcohol ethoxylated to an average degree of ethoxylation of about 3” was tested, and the “effect of the surfactant” value was “not better than the conventional LES surfactant”.

Same assay, conditions: about 100 ppm by weight surfactant; lipase concentrate about 0.2 g/l; pH about 9.6; about 50° C.; water hardness 2 fH; 10 minute washing test
“Linear Alkyl Benzene Sulphonate [Sample B]” was tested, and the “relative lipase activity relative to the blank liquor (A) set at 100%” value was 12%.
